Assay results published in ChEMBL document CHEMBL4359888, “Discovery of aryl-substituted indole and indoline derivatives as RORγt agonists” (Eur J Med Chem, 2019).
Values after ≈ are worked out from the molar mass of the structure shown.

Key:
[1] = target: T1, Nuclear receptor ROR-gamma (Homo sapiens, UniProt P51449); experiment: Agonist activity at APC-labeled biotinylated RORgammaT LBD (unknown origin) assessed as induction of biotinylated SRC-1 peptide recruitment incubated for 1 hr by dual FRET assay
T1 sequence (P51449 whole entry): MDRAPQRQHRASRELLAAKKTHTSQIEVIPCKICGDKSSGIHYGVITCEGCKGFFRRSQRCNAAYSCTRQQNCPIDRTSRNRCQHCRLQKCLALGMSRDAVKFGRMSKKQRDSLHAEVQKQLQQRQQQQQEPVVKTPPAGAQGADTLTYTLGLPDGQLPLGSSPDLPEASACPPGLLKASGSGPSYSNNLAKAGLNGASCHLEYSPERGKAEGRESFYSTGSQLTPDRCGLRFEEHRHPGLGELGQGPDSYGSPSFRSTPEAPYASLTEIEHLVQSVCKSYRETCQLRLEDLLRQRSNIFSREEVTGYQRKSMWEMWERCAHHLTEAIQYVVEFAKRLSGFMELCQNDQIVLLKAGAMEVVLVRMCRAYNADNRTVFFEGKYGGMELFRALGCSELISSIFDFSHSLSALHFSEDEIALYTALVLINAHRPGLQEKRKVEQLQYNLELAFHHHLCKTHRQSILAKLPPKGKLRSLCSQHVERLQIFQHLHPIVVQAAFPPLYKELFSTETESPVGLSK

[2] = Metabolic stability in mouse liver microsomes assessed as half life of compound at 1 uM and measured for 60 mins in presence of NADPH by HPLC-MS/MS analysis; assay type: ADME, Microsome
[3] = target: T1, Nuclear receptor ROR-gamma; experiment: Transactivation of human GAL4-fused RORgammaT LBD expressed in human HEK293T cells incubated for 16 to 20 hrs by steady-glo luciferase assay; assay type: cell-based
physchem = settings: phosphate buffer, pH 7.46
[4] = Cmax in CD-1 mouse at 1 mg/kg, iv measured for 24 hrs by LC-MS/MS analysis; assay type: ADME, organism-based; parameters: dose 1 mg/kg, route intravenous; settings: in vivo
[5] = AUC (0 to last) in CD-1 mouse at 1 mg/kg, iv measured for 24 hrs by LC-MS/MS analysis; assay type: ADME, organism-based; parameters: dose 1 mg/kg, route intravenous, time 0 - last; settings: in vivo
[6] = Volume of distribution at steady state in CD-1 mouse at 1 mg/kg, iv measured for 24 hrs by LC-MS/MS analysis; assay type: ADME, organism-based; settings: in vivo, read-out: Vdss
[7] = Half life in CD-1 mouse at 1 mg/kg, iv measured for 24 hrs by LC-MS/MS analysis; assay type: ADME, organism-based; settings: in vivo
[8] = Clearance in CD-1 mouse at 1 mg/kg, iv measured for 24 hrs by LC-MS/MS analysis; assay type: ADME, organism-based; settings: in vivo
[9] = Cmax in CD-1 mouse at 5 mg/kg, po measured for 24 hrs by LC-MS/MS analysis; assay type: ADME, organism-based; parameters: dose 5 mg/kg, route oral; settings: in vivo
[10] = AUC (0 to last) in CD-1 mouse at 5 mg/kg, po measured for 24 hrs by LC-MS/MS analysis; assay type: ADME, organism-based; parameters: dose 5 mg/kg, route oral, time 0 - last; settings: in vivo
[11] = Half life in CD-1 mouse at 5 mg/kg, po measured for 24 hrs by LC-MS/MS analysis; assay type: ADME, organism-based; settings: in vivo
[12] = Oral bioavailability in CD-1 mouse at 5 mg/kg measured for 24 hrs by LC-MS/MS analysis; assay type: ADME, organism-based; settings: in vivo
in vitro = settings: mouse, liver microsomes

O=C(O)CCC1Cc2ccc(-c3cc(F)cc(OC(F)F)c3)cc2N1S(=O)(=O)c1cccc(C(F)(F)F)c1 (stereo not drawn)
EC50 [1]: 31.3 nM
half-life at 1 µM [2]: 60.9 min
EC50 [3]: 2320 nM

O=C(O)CC1CN(S(=O)(=O)c2cccc(C(F)(F)F)c2)c2cc(-c3cc(F)cc(OC(F)F)c3)ccc21 (stereo not drawn)
EC50 [1]: 21.8 nM
half-life at 1 µM [2]: 45.6 min

O=C(O)C1CCN(C(=O)CC2Cc3ccc(-c4cc(F)cc(OC(F)F)c4)cc3N2S(=O)(=O)c2cccc(C(F)(F)F)c2)CC1 (stereo not drawn)
EC50 [1]: 57.1 nM
half-life at 1 µM [2]: 30.1 min
EC50 [3]: 5440 nM

O=C(O)CCCc1cc2ccc(-c3cc(F)cc(OC(F)F)c3)cc2n1S(=O)(=O)c1cccc(C(F)(F)F)c1
EC50 [1]: 45.3 nM

O=C(CC1Cc2ccc(-c3cc(F)cc(OC(F)F)c3)cc2N1S(=O)(=O)c1cccc(C(F)(F)F)c1)N1CC(O)C1 (stereo not drawn)
EC50 [1]: 244 nM

CC(=O)N1CCN(c2ccc(OCC3COC(Cn4ccnc4)(c4ccc(Cl)cc4Cl)O3)cc2)CC1 (stereo not drawn) [KETOCONAZOLE]
solubility kinetic at 2 h, 100 µM (physchem): 31.1 µM (≈ 16.5 µg/mL)

O=C(O)CCCC1CN(S(=O)(=O)c2cccc(C(F)(F)F)c2)c2cc(-c3cc(F)cc(OC(F)F)c3)ccc21 (stereo not drawn)
EC50 [1]: 26.2 nM
half-life at 1 µM [2]: 34.2 min

CCOc1cc(F)cc(-c2ccc3c(c2)N(S(=O)(=O)c2cccc(C(F)(F)F)c2)C(CC(=O)O)C3)c1 (stereo not drawn)
EC50 [1]: 32.9 nM

O=C(O)CCCc1cn(S(=O)(=O)c2cccc(C(F)(F)F)c2)c2cc(-c3cc(F)cc(OC(F)F)c3)ccc12
EC50 [1]: 93.8 nM

O=C(O)CC1Cc2ccc(-c3cc(F)cc(OC(F)F)c3)cc2N1S(=O)(=O)c1cccc(C(F)(F)F)c1 (racemic)
EC50 [1]: 20.8 nM
half-life at 1 µM [2]: 113 min
EC50 [3]: 247 nM
Cmax [4]: 1640 ng/mL
AUC(0-t) at 24 h [5]: 1710 ng·h/mL
Vd [6]: 2.09 L/kg
half-life [7]: 295 min
clearance [8]: 9.55 mL/min/kg
Cmax [9]: 1400 ng/mL
AUC(0-t) at 24 h [10]: 9120 ng·h/mL
half-life [11]: 249 min
bioavailability [12]: 107%
microsomal CLint at 1 h, 1 µM (in vitro): 12.3 µL/min/mg
solubility kinetic at 2 h, 100 µM (physchem): 69.4 µM (≈ 37.9 µg/mL)

O=C1CN(C(=O)CC2Cc3ccc(-c4cc(F)cc(OC(F)F)c4)cc3N2S(=O)(=O)c2cccc(C(F)(F)F)c2)C1 (stereo not drawn)
EC50 [1]: 78.8 nM

O=C1CCN(C(=O)CC2Cc3ccc(-c4cc(F)cc(OC(F)F)c4)cc3N2S(=O)(=O)c2cccc(C(F)(F)F)c2)CC1 (stereo not drawn)
EC50 [1]: 80.4 nM

COc1cc(F)cc(-c2ccc3c(c2)N(S(=O)(=O)c2cccc(C(F)(F)F)c2)C(CC(=O)O)C3)c1 (stereo not drawn)
EC50 [1]: 39.3 nM

O=C(CC1Cc2ccc(-c3cc(F)cc(OC(F)F)c3)cc2N1S(=O)(=O)c1cccc(C(F)(F)F)c1)N1CCOCC1 (stereo not drawn)
EC50 [1]: 209 nM

O=C(O)C[C@@H]1Cc2ccc(-c3cc(F)cc(OC(F)F)c3)cc2N1S(=O)(=O)c1cccc(C(F)(F)F)c1
EC50 [1]: 16.1 nM
EC50 [3]: 201 nM

O=C(O)CC1Cc2ccc(-c3cc(F)cc(C(F)(F)F)c3)cc2N1S(=O)(=O)c1cccc(C(F)(F)F)c1 (stereo not drawn)
EC50 [1]: 41.3 nM

O=S(=O)(c1cccc(C(F)(F)F)c1)n1cnc2ccc(-c3cc(F)cc(OC(F)F)c3)cc21
EC50 [1]: 122 nM

O=S(=O)(c1cccc(C(F)(F)F)c1)N1CCc2ccc(-c3cc(F)cc(OC(F)F)c3)cc21
EC50 [1]: 50.6 nM
half-life at 1 µM [2]: 11.4 min
microsomal CLint at 1 h, 1 µM (in vitro): 121 µL/min/mg
solubility kinetic at 2 h, 100 µM (physchem): 1.48 µM (≈ 0.721 µg/mL)

O=C(O)c1cc2ccc(-c3cc(F)cc(OC(F)F)c3)cc2n1S(=O)(=O)c1cccc(C(F)(F)F)c1
EC50 [1]: 74.3 nM

O=S(=O)(c1cccc(C(F)(F)F)c1)n1ncc2ccc(-c3cc(F)cc(OC(F)F)c3)cc21
EC50 [1]: 205 nM

O=C(O)CC1Cc2ccc(-c3ccc4c(c3)OCO4)cc2N1S(=O)(=O)c1cccc(C(F)(F)F)c1 (stereo not drawn)
EC50 [1]: 87.4 nM

O=C(O)Cc1cc2ccc(-c3cc(F)cc(OC(F)F)c3)cc2n1S(=O)(=O)c1cccc(C(F)(F)F)c1
EC50 [1]: 125 nM

O=S(=O)(c1cccc(C(F)(F)F)c1)n1ccc2ccc(-c3cc(F)cc(OC(F)F)c3)cc21
EC50 [1]: 99.4 nM
half-life at 1 µM [2]: 39.1 min

O=C(O)CCCC1Cc2ccc(-c3cc(F)cc(OC(F)F)c3)cc2N1S(=O)(=O)c1cccc(C(F)(F)F)c1 (stereo not drawn)
EC50 [1]: 25.2 nM
half-life at 1 µM [2]: 93.3 min
EC50 [3]: 422 nM

O=C(CC1Cc2ccc(-c3cc(F)cc(OC(F)F)c3)cc2N1S(=O)(=O)c1cccc(C(F)(F)F)c1)N1CCC(O)CC1 (stereo not drawn)
EC50 [1]: 106 nM
half-life at 1 µM [2]: 0.7 min
EC50 [3]: 6040 nM

O=C(O)C[C@H]1Cc2ccc(-c3cc(F)cc(OC(F)F)c3)cc2N1S(=O)(=O)c1cccc(C(F)(F)F)c1
EC50 [1]: 286 nM

O=C1CCN(C(=O)CC2Cc3ccc(-c4cc(F)cc(OC(F)F)c4)cc3N2S(=O)(=O)c2cccc(C(F)(F)F)c2)C1 (stereo not drawn)
EC50 [1]: 52.3 nM

O=C(O)CCC1CN(S(=O)(=O)c2cccc(C(F)(F)F)c2)c2cc(-c3cc(F)cc(OC(F)F)c3)ccc21 (stereo not drawn)
EC50 [1]: 14.6 nM
half-life at 1 µM [2]: 24.5 min

O=S(=O)(c1cccc(C(F)(F)F)c1)N1CCc2ccc(OCc3c(F)cccc3Cl)cc21
EC50 [1]: 30.2 nM
half-life at 1 µM [2]: 2.9 min
microsomal CLint at 1 h, 1 µM (in vitro): 482 µL/min/mg
solubility kinetic at 2 h, 100 µM (physchem): 0.08 µM (≈ 0.0389 µg/mL)

CC(C)Oc1cc(F)cc(-c2ccc3c(c2)N(S(=O)(=O)c2cccc(C(F)(F)F)c2)C(CC(=O)O)C3)c1 (stereo not drawn)
EC50 [1]: 124 nM

O=C(CC1Cc2ccc(-c3cc(F)cc(OC(F)F)c3)cc2N1S(=O)(=O)c1cccc(C(F)(F)F)c1)N1CC2(COC2)C1 (stereo not drawn)
EC50 [1]: 47.9 nM
half-life at 1 µM [2]: 0.7 min
EC50 [3]: 752 nM

O=C(O)CC1Cc2ccc(-c3ccc4c(c3)CCO4)cc2N1S(=O)(=O)c1cccc(C(F)(F)F)c1 (stereo not drawn)
EC50 [1]: 56.8 nM

O=C(O)C1CN(C(=O)CC2Cc3ccc(-c4cc(F)cc(OC(F)F)c4)cc3N2S(=O)(=O)c2cccc(C(F)(F)F)c2)C1 (stereo not drawn)
EC50 [1]: 49.3 nM
half-life at 1 µM [2]: 65.9 min
EC50 [3]: 4050 nM

O=C(O)CC1Cc2ccc(-c3cccc(OC(F)(F)F)c3)cc2N1S(=O)(=O)c1cccc(C(F)(F)F)c1 (stereo not drawn)
EC50 [1]: 31.1 nM

O=C(O)CCc1cn(S(=O)(=O)c2cccc(C(F)(F)F)c2)c2cc(-c3cc(F)cc(OC(F)F)c3)ccc12
EC50 [1]: 43.6 nM

O=C(CC1Cc2ccc(-c3cc(F)cc(OC(F)F)c3)cc2N1S(=O)(=O)c1cccc(C(F)(F)F)c1)N1CCS(=O)(=O)CC1 (stereo not drawn)
EC50 [1]: 43.4 nM
half-life at 1 µM [2]: 2 min
EC50 [3]: 322 nM

O=C(O)CC1Cc2ccc(-c3cc(F)cc(F)c3)cc2N1S(=O)(=O)c1cccc(C(F)(F)F)c1 (stereo not drawn)
EC50 [1]: 25.7 nM

CC(C)(C[C@H]1CN(S(=O)(=O)c2cccc(C(F)(F)F)c2)c2cc(-c3cc(F)cc(OC(F)F)c3)ccc2O1)C(=O)O [CINTIRORGON]
solubility kinetic at 2 h, 100 µM (physchem): 37.5 µM (≈ 22.6 µg/mL)

O=C(O)CC1Cc2ccc(-c3ccc4c(c3)OC(F)(F)O4)cc2N1S(=O)(=O)c1cccc(C(F)(F)F)c1 (stereo not drawn)
EC50 [1]: 42.6 nM

O=C(O)CC1Cc2ccc(-c3cc(F)cc(Cl)c3)cc2N1S(=O)(=O)c1cccc(C(F)(F)F)c1 (stereo not drawn)
EC50 [1]: 42 nM

O=C(O)Cc1cn(S(=O)(=O)c2cccc(C(F)(F)F)c2)c2cc(-c3cc(F)cc(OC(F)F)c3)ccc12
EC50 [1]: 133 nM

COC(=O)C1=C(C)NC(C)=C(C(=O)OCCN(C)Cc2ccccc2)C1c1cccc([N+](=O)[O-])c1 (stereo not drawn) [NICARDIPINE]
solubility kinetic at 2 h, 100 µM (physchem): 5.01 µM (≈ 2.4 µg/mL)

O=C(O)CCc1cc2ccc(-c3cc(F)cc(OC(F)F)c3)cc2n1S(=O)(=O)c1cccc(C(F)(F)F)c1
EC50 [1]: 25.5 nM
half-life at 1 µM [2]: > 145 min
EC50 [3]: 1710 nM
